2 compounds from paper PMC12259270, “Sensory neuron–expressed FGF13 controls nociceptive signaling in diabetic neuropathy models” (The Journal of Clinical Investigation, 2025) can be followed below.

The structures appear in SMILES notation. Entries after “also recorded” stand apart in the source; their conditions may differ. Residues, ends and D or L forms follow the SMILES beside them. *: point of attachment. Cbz = O=C(OCc1ccccc1)*; NHPh = c1ccc(N*)cc1; OtBu = CC(C)(C)O*

One data set concerns the target T1, FGF13 (Homo sapiens, UniProt Q92913).
T1 construct: Full-length FGF13-1b (aa 1-192) was subcloned into appropriate plasmids; made in house; host or cells: E. coli BL21 (DE3) pLys
T1 sequence (Q92913 1-192 isoform Q92913-2): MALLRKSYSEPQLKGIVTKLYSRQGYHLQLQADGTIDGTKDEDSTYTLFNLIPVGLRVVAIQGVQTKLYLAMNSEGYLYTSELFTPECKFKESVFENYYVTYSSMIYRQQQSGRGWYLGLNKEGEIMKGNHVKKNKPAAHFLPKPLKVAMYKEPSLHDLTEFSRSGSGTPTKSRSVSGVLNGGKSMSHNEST
The data set can be described thus: Surface plasmon resonance (SPR), compound binding to FGF13. The settings on record: for Kd: SPR. The protocol: page 6: Split-luciferase Complementation Assay (LCA) Twenty-four hours post transfection, cells were trypsinized using TrypLE (Gibco; cat # 12604013), centrifuged […] plates (Greiner Bio -One; cat # 655073 ) at ~0.8 x 10^5 cells per well in 200 μl of medium. The cells were incubated for another 24 hours, and then the growth medium was replaced with 100 μl serum -free, phenol red -free DMEM/F-12 medium (Invitrogen). All compounds from the PW - and the ZL-series, including PW164 and […] medium and then cells were incubated for two hours. The bioluminescence reaction was initiated by injection of 100 μl of D -luciferin substrate (1.5 mg/ml dissolved in PBS) using a Synergy H4 multimode microplate reader (BioTek). Luminescence readings were initiated after 3 s of mild plate shaking and performed at 2 min intervals […] °C. Raw signal intensity was computed by averaging peak luminescence plus two adjacent time points. Normalized signal intensity was expressed as the percentage of mean signal intensity relative to per plate control […] Surface plasmon resonance (SPR) All SPR experiments were performed on a Biacore T100 (GE Healthcare). […] ([…]) , which was previously described (14) or purified FGF13 were immobilized on CM5 sensor chip using 10 mM sodium acetate buffer (pH 5.5) with Amine Coupling Kit (GE […] to the control channel of the chip. For each compound, stock solution (50 mM) was serially diluted from 300 to 1 […] Samples were injected over the chip for 60 s followed by […] page 7: […] The nonspecific responses (buffer alone) were extracted for injected compound or peptide from experimental sensograms before data analysis. Data was analyzed for kinetic properties using Biacore T100 Analysis software. Visually inspected sensograms/traces were used to calculate the equilibrium constant (KD): i. the maximal responses were plotted against the treated concentrations, and the steady state KD was calculated from the fitted saturation binding curve; ii. a kinetic analysis for all ligand/analyte interaction was obtained by using Langmuir 1:1 interaction fitting model (KD = koff/kon). RNA isolation from DRG Mouse surgical and experimental procedures employed were approved by the University of Texas Medical Branch Institutional Animal Care and Use Committee. Animals were sacrificed using carbon dioxide before confirmation of death, rather than cervical dislocation. Mouse lumbar dorsal root ganglia (L4 and L5) were dissected and collected in Buffer RLT Plus (RNeasy Plus Mini Kit, QIAGEN, cat. nos. 74136). RNA was isolated according to the protocol reported in the same kit. Quantitative reverse transcriptase PCR (qRT-PCR) RNA samples for real-time analysis were then quantified using a Nanodrop Spectrophotometer (Thermo Scientific). cDNA was generated from total RNA (1 μg) in a 20 μl reaction using the reagents of iScriptTM Reverse Transcription Supermix for RT-qPCR (Bio-Rad Laboratories, cat. 1708840). FGF13 gene expression was determined by qRT-PCR. qRT-PCR was performed in duplicate for each sample using 4 μl of cDNA in a total volume of 20 μl using the iTaq Universal SYBR Green Supermix (Bio-Rad, Hercules, CA, United States). All RT-PCR assays were run using the BioRad CFX384 Touch Real-Time PCR System (Bio-Rad, Hercules, CA, United States) with the following conditions: 95°[…]) repeated by 40 cycles and 4°C. […] The internal reference gene for SYBR Green assays was 18[NT] and 5'-CTC

The target of data set [1] is human ether-a-go-go-related gene (hERG) (Homo sapiens, UniProt Q12809).
Sequence of human ether-a-go-go-related gene (hERG) (Q12809 whole entry): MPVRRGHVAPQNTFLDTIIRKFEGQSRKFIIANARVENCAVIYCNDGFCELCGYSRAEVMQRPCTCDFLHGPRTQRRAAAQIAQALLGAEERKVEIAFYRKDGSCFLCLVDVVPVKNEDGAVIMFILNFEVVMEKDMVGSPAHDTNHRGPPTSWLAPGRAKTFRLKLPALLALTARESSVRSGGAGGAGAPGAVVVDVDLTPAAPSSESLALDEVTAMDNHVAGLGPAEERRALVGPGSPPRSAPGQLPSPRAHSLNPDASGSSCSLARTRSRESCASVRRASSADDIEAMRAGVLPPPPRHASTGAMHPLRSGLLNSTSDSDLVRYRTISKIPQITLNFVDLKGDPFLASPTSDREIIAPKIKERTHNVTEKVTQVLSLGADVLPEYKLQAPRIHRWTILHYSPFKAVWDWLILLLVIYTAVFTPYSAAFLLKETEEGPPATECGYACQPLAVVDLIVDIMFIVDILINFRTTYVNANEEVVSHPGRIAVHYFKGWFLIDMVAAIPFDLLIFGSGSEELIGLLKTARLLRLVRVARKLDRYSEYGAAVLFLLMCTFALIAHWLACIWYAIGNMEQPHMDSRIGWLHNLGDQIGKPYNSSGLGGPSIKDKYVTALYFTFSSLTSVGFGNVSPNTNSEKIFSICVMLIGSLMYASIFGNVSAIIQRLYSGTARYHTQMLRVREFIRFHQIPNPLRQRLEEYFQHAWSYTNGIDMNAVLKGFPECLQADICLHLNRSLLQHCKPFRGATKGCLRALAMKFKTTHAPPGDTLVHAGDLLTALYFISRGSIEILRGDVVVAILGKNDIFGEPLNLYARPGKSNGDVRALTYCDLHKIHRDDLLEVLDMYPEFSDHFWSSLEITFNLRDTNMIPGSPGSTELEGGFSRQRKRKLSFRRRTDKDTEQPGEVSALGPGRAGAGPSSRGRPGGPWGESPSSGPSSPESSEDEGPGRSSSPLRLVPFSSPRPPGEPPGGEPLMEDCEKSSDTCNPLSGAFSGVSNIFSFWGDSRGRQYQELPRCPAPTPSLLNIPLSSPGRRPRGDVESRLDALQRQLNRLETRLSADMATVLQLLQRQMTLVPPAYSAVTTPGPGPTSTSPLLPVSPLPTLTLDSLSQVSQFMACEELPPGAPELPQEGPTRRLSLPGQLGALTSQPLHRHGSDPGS
The next data set addresses T2, Nav1.7 CTD (Homo sapiens, UniProt Q15858).
T2 construct: purchased Ontores Biotechnologies Co; host or cells: chemical synthesis
Briefly: SPR, compound binding to Nav1.7-CTD peptide.

Data set [2] has as its system FGF13 and Nav1.7 colocalization in hIPSC-derived sensory neurons. Briefly: Immunocytochemistry, FGF13 and Nav1.7 colocalization in RealDRG. The arrangement: Figure S6C, Mean: unit not given here. It counts as cell-based, human. Conditions: for Figure S6C, Mean: Capsaicin + PW164, N 48. The protocol:
After treatment, coverslips containing hIPSC-derived sensory neurons were fixed with 4% PFA/4% sucrose for 15 minutes, permeabilized for 5 minutes using 0.1% Triton X-100 in PBS and blocked with 10% Normal Goat Serum (ThermoFisher Scientific) for 30 minutes. Cells were stained using primary antibodies ms IgG1 Nav1.7 […]
Tubulin (Abcam, catalog # ab18207; 1:2000) overnight at 4∘C in 3% BSA. Isotype specific secondary antibodies ms IgG1 Alexa 568 (Life Technologies, catalog # A-21124; 1:200), ms IgG2a Alexa 647 (Life Technologies, […]
applied for 2 hours. After washing, cell membranes were labeled using CellBrite Cytoplasmic Membrane Dye (Biotium) according to manufacturer directions. After final washing, coverslips were mounted using ProLong Gold Antifade Mountant (ThermoFisher). hIPSC-derived sensory neurons were fixed at day 14 in buffered formalin (10 wt%/vol%, Fisher Scientific 23-305-510) for 10 minutes, permeabilized in DPBS plus Triton X-100 (0.2 vol%/vol%, MilliporeSigma, T8787-100ML), blocked in DPBS plus bovine serum albumin (1 wt%/vol%, MilliporeSigma A3059-100G) and Tween-20 (0.1 vol% MilliporeSigma P1379) for 2 hours, and incubated with primary antibodies overnight. Cultures were washed twice with blocking solution and incubated 1 hour with secondary antibodies. 4′,6-diamidino-2-phenylindole dilactate (DAPI, Thermo Fisher D3571) was added for 10 minutes before washing three times in DPBS. Antibodies used include: TUJ1 (1:250, MilliporeSigma MAB1637), […]
and Alexa Fluor 555 Donkey anti-Rabbit (1:500, Thermo Fisher Scientific A-31572). Negative controls included

T2 sequence (Q15858 1888-1910 limits assumed): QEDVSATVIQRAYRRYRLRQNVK

Regarding `COC(=O)[C@@H](NC(=O)[C@H](CCC(=O)OC(C)(C)C)NC(=O)[C@H](CC(C)C)NC(=O)[C@@H]1CCCN1C(=O)OCc1ccccc1)C(C)C` [PW164] (Cbz-PLE(OtBu)V-OMe), on FGF13, the Kd is 21 ± 3 µM. For the same compound, the 50% inhibitory concentration (IC50) in data set [1] is > 30 µM. Further, the “KD, binding to Nav1.7 CTD” value at Nav1.7 CTD is reported as “no interaction”. For the same compound, the “Figure S6C, Mean” value in data set [2] (Distance 7.1166 microns) was found to be 361.193; in data set [2] (Distance 7.2484 microns), 608.58; in data set [2] (Distance 7.3801 microns), 960.938; in data set [2] (Distance 7.5119 microns) it was 1312.68; in data set [2] (Distance 7.6437 microns), 1599.77; in data set [2] (Distance 7.7755 microns) it was 1799.6. Moreover, the “Figure S6C, Mean” value turned out to be 1927.38 in data set [2] (Distance 7.9073 microns); 1925.95 in data set [2] (Distance 8.0391 microns); 1887.37 in data set [2] (Distance 8.1709 microns); 1816.83 in data set [2] (Distance 8.3027 microns); 1764.58 in data set [2] (Distance 8.4344 microns); 1693.16 in data set [2] (Distance 8.5662 microns). Also, the “Figure S6C, Mean” value in data set [2] (Distance 8.698 microns) came out at 1596.57; in data set [2] (Distance 8.8298 microns), 1545.56; in data set [2] (Distance 8.9616 microns) it was 1561.89; in data set [2] (Distance 9.0934 microns), 1608.37. For the same compound, the “colocalization of FGF13 and Nav1.7 after capsaicin” value in data set [2] (RealDRG, capsaicin + PW164) is reported as “reduced; also recorded: reverses”.

Regarding `CC(=O)N[C@@H](Cc1ccccc1)C(=O)N[C@@H](CC(C)C)C(=O)N1CCC[C@H]1C(=O)N[C@@H](CCCCN)C(=O)Nc1ccccc1` [ZL192] (Ac-FLPK-NHPh), the equilibrium dissociation constant (Kd) on FGF13 came out at 4 µM. Also, the “Figure 1C Right panel, Mean response versus concentration” value at FGF13 (concentration 3.12e-6) came to 10.5172; at FGF13 (concentration 6.25e-6), 11.7391; at FGF13 (concentration 1.25e-5), 12.5757; at FGF13 (concentration 2.5e-5) it was 14.2936; on FGF13 (concentration 5e-5), 15.3045; at FGF13 (concentration 7.5e-5), 16.2485. Besides, the “Figure 1C Right panel, Mean response versus concentration” value is 18.1479 at FGF13 (concentration 0.0001); 20.366 on FGF13 (concentration 0.00015); 22.3345 at FGF13 (concentration 0.0002); 22.6291 at FGF13 (concentration 0.0003); 7.018 at FGF13 (concentration 7.80E-07).
